Results reported in US9156829B2, “Cycloalkyl and heterocycloalkyl compounds as orexin receptor antagonists” (Takeda Pharmaceutical Company Limited, priority 2014, dated 2015).

Assays:
human orexin receptor 2 = human orexin receptor 2 (Homo sapiens (Human), UniProt O43614); assay: Orexin antagonist activity, intracellular calcium FLIPR assay, RBL-2H3 cells expressing human orexin receptor 2; type: cell-based; conditions: RBL-2H3 cells stably expressing human orexin receptor 2; orexin-A at approx. 80% maximal response; compound added 15 minutes before; read-out: Human Orexin2R IC50
human orexin receptor 2, sequence (O43614 whole entry): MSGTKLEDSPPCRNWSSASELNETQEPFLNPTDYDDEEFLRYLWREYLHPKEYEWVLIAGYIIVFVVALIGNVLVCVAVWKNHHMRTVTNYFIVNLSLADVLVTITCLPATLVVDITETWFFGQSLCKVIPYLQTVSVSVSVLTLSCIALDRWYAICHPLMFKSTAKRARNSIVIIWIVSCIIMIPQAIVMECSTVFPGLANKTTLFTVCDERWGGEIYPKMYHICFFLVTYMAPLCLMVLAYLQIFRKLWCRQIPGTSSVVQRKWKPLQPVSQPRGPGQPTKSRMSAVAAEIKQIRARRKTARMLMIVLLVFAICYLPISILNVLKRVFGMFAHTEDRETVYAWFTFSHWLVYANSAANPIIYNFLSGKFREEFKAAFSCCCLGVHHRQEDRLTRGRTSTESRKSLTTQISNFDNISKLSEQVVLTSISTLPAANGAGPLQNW

human orexin receptor 1 = human orexin receptor 1 (Homo sapiens (Human), UniProt O43613); assay: Orexin antagonist activity, intracellular calcium FLIPR assay, RBL-2H3 cells expressing human orexin receptor 1; type: cell-based; conditions: RBL-2H3 cells stably expressing human orexin receptor 1; orexin-A at approx. 80% maximal response; compound added 15 minutes before; read-out: Human Orexin1R IC50
human orexin receptor 1, sequence (O43613 whole entry): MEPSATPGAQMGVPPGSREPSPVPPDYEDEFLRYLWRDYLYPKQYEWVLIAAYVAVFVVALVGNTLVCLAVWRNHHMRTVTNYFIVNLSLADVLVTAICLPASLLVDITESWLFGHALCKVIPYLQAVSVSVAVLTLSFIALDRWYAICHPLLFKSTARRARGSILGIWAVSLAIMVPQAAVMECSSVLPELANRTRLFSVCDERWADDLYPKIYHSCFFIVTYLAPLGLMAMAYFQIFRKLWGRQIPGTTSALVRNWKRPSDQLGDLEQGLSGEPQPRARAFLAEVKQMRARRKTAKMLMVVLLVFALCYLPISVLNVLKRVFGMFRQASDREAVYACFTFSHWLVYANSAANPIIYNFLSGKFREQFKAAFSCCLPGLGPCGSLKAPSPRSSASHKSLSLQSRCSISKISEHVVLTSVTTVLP

| SMILES | IC50 (human orexin receptor 2) [µM] | IC50 (human orexin receptor 1) [nM] |
| --- | --- | --- |
| CN(c1cnc(C(F)(F)F)cn1)[C@H]1CCC[C@@H]1NC(=O)c1ccccc1-n1nccn1 [Example 73, N-[(1S,2S)-2-{Methyl[5-(trifluoromethyl)pyrazin-2-yl]amino}cyclopentyl]-2-(2H-1,2,3-triazol-2-yl)benzamide] | > 10 | 248 |
| CN(c1cnc(C(F)(F)F)cn1)[C@H]1CCC[C@@H]1NC(=O)c1cc(F)ccc1-n1nccn1 [Example 74, 5-Fluoro-N-[(1S,2S)-2-{methyl[5-(trifluoromethyl)pyrazin-2-yl]amino}cyclopentyl]-2-(2H-1,2,3-triazol-2-yl)benzamide] | > 10 | 308 |
| CN(c1cnc(C(F)(F)F)cn1)[C@H]1CCC[C@@H]1NC(=O)c1c(F)cccc1-n1nccn1 [Example 75, 2-Fluoro-N-[(1S,2S)-2-{methyl[5-(trifluoromethyl)pyrazin-2-yl]amino}cyclopentyl]-6-(2H-1,2,3-triazol-2-yl)benzamide] | > 10 | 279 |
| Cc1nc(C(F)(F)F)cnc1N[C@H]1CCC[C@@H]1NC(=O)c1ncccc1-n1nccn1 [Example 76, N-[(1S,2S)-2-{[3-Methyl-5-(trifluoromethyl)pyrazin-2-yl]amino}cyclopentyl]-3-(2H-1,2,3-triazol-2-yl)pyridine-2-carboxamide] | > 10 | 33 |
| C[C@]1(Nc2cnc(C(F)(F)F)cn2)CCC[C@@H]1NC(=O)c1ncccc1-n1nccn1 [Example 77, N-[(1S,2S)-2-Methyl-2-{[5-(trifluoromethyl)pyrazin-2-yl]amino}cyclopentyl]-3-(2H-1,2,3-triazol-2-yl)pyridine-2-carboxamide] | > 10 | 12 |
| Cc1nc(C(F)(F)F)cnc1N[C@H]1CCC[C@@H]1NC(=O)c1ccccc1-n1nccn1 [Example 78, N-[(1S,2S)-2-{[3-Methyl-5-(trifluoromethyl)pyrazin-2-yl]amino}cyclopentyl]-2-(2H-1,2,3-triazol-2-yl)benzamide] | > 10 | 19 |
| Cc1nc(C(F)(F)F)cnc1N[C@H]1CCC[C@@H]1NC(=O)c1ccccc1-c1ncccn1 [Example 79, N-[(1S,2S)-2-{[3-Methyl-5-(trifluoromethyl)pyrazin-2-yl]amino}cyclopentyl]-2-(pyrimidin-2-yl)benzamide] | > 10 | 35 |
| Cc1nc(C(F)(F)F)cnc1N[C@H]1CCC[C@@H]1NC(=O)c1cc(F)ccc1-c1ncccn1 [Example 80, 5-Fluoro-N-[(1S,2S)-2-{[3-methyl-5-(trifluoromethyl)pyrazin-2-yl]amino}cyclopentyl]-2-(pyrimidin-2-yl)benzamide] | > 10 | 35 |
| C[C@]1(Nc2cnc(C(F)(F)F)cn2)CCC[C@@H]1NC(=O)c1ccccc1-n1nccn1 [Example 81, N-[(1S,2S)-2-Methyl-2-{[5-(trifluoromethyl)pyrazin-2-yl]amino}cyclopentyl]-2-(2H-1,2,3-triazol-2-yl)benzamide] | > 10 | 7 |
| CC1(Nc2cnc(C(F)(F)F)cn2)CCCC1NC(=O)c1ccccc1-n1nccn1 (stereo not drawn) [Example 82, N-(2-Methyl-2-{[5-(trifluoromethyl)pyrazin-2-yl]amino}cyclopentyl)-2-(2H-1,2,3-triazol-2-yl)benzamide] | 7.54 | 21 |
| C[C@@]1(Nc2cnc(C(F)(F)F)cn2)CCC[C@H]1NC(=O)c1ccccc1-n1nccn1 [Example 83, N-[(1R,2R)-2-Methyl-2-{[5-(trifluoromethyl)pyrazin-2-yl]amino}cyclopentyl]-2-(2H-1,2,3-triazol-2-yl)benzamide] | 1.4 | 2500 |
| C[C@]1(Nc2cnc(C(F)(F)F)cn2)CCC[C@@H]1NC(=O)c1cc(F)ccc1-n1nccn1 [Example 84, 5-Fluoro-N-[(1S,2S)-2-methyl-2-{[5-(trifluoromethyl)pyrazin-2-yl]amino}cyclopentyl]-2-(2H-1,2,3-triazol-2-yl)benzamide] | > 10 | 22 |
| C[C@]1(Nc2cnc(C(F)(F)F)cn2)CCC[C@@H]1NC(=O)c1ncccc1-n1cccn1 [Example 85, N-[(1S,2S)-2-Methyl-2-{[5-(trifluoromethyl)pyrazin-2-yl]amino}cyclopentyl]-3-(1H-pyrazol-1-yl)pyridine-2-carboxamide] | > 10 | 18 |
| CCOc1cccnc1C(=O)N[C@H]1CCC[C@]1(C)Nc1cnc(C(F)(F)F)cn1 [Example 86, 3-Ethoxy-N-[(1S,2S)-2-methyl-2-{[5-(trifluoromethyl)pyrazin-2-yl]amino}cyclopentyl]pyridine-2-carboxamide] | > 10 | 129 |
| C[C@]1(Nc2cnc(C(F)(F)F)cn2)CCC[C@@H]1NC(=O)c1c(Cl)cccc1-n1nccn1 [Example 87, 2-Chloro-N-[(1S,2S)-2-methyl-2-{[5-(trifluoromethyl)pyrazin-2-yl]amino}cyclopentyl]-6-(2H-1,2,3-triazol-2-yl)benzamide] | > 10 | 8 |
| C[C@]1(Nc2cnc(C(F)(F)F)cn2)CCC[C@@H]1NC(=O)c1c(F)cccc1F [Example 88, 2,6-Difluoro-N-[(1S,2S)-2-methyl-2-{[5-(trifluoromethyl)pyrazin-2-yl]amino}cyclopentyl]benzamide] | > 10 | 166 |
| C[C@]1(Nc2cnc(C(F)(F)F)cn2)CCC[C@@H]1NC(=O)c1ncccc1C1CC1 [Example 89, 3-Cyclopropyl-N-[(1S,2S)-2-methyl-2-{[5-(trifluoromethyl)pyrazin-2-yl]amino}cyclopentyl]pyridine-2-carboxamide] | > 10 | 140 |
| C[C@]1(Nc2cnc(C(F)(F)F)cn2)CCC[C@@H]1NC(=O)c1ncccc1OC(F)(F)F [Example 90, N-[(1S,2S)-2-Methyl-2-{[5-(trifluoromethyl)pyrazin-2-yl]amino}cyclopentyl]-3-(trifluoromethoxy)pyridine-2-carboxamide] | > 10 | 68 |
| C[C@]1(Nc2cnc(C(F)(F)F)cn2)CCC[C@@H]1NC(=O)c1ccccc1-c1ncccn1 [Example 91, N-[(1S,2S)-2-Methyl-2-{[5-(trifluoromethyl)pyrazin-2-yl]amino}cyclopentyl]-2-(pyrimidin-2-yl)benzamide] | > 10 | 6 |
| C[C@]1(Nc2cnc(C(F)(F)F)cn2)CCC[C@@H]1NC(=O)c1cc(Cl)ccc1-n1nccn1 [Example 92, 5-Chloro-N-[(1S,2S)-2-methyl-2-{[5-(trifluoromethyl)pyrazin-2-yl]amino}cyclopentyl]-2-(2H-1,2,3-triazol-2-yl)benzamide] | 5.57 | 8 |
| CC1(Nc2ncc(C(F)(F)F)cn2)CCCC1NC(=O)c1ccccc1-n1nccn1 (stereo not drawn) [Example 93, N-(2-Methyl-2-{[5-(trifluoromethyl)pyrimidin-2-yl]amino}cyclopentyl)-2-(2H-1,2,3-triazol-2-yl)benzamide] | > 10 | 35 |
| CC1(Nc2ccc(C(F)(F)F)cn2)CCCC1NC(=O)c1ccccc1-n1nccn1 (stereo not drawn) [Example 95, N-(2-Methyl-2-{[5-(trifluoromethyl)pyridin-2-yl]amino}cyclopentyl)-2-(2H-1,2,3-triazol-2-yl)benzamide] | 1.07 | 19 |
| CC1(Nc2ccc(OC(F)(F)F)cn2)CCCC1NC(=O)c1ccccc1-n1nccn1 (stereo not drawn) [Example 96, N-(2-Methyl-2-{[5-(trifluoromethoxy)pyridin-2-yl]amino}cyclopentyl)-2-(2H-1,2,3-triazol-2-yl)benzamide] | 1.36 | 86 |
| O=C(N[C@H]1CCC[C@@H]1Nc1ccc(C(F)(F)F)cn1)c1cc(Cl)ccc1-n1nccn1 [Example 97, 5-Chloro-2-(2H-1,2,3-triazol-2-yl)-N-[(1S,2S)-2-{[5-(trifluoromethyl)pyridin-2-yl]amino}cyclopentyl]benzamide] | > 10 | 122 |
| O=C(N[C@H]1CCC[C@@H]1Nc1ccc(C(F)(F)F)cn1)c1cccc(F)c1-n1nccn1 [Example 98, 3-Fluoro-2-(2H-1,2,3-triazol-2-yl)-N-[(1S,2S)-2-{[5-(trifluoromethyl)pyridin-2-yl]amino}cyclopentyl]benzamide] | > 10 | 160 |
| O=C(N[C@H]1CCC[C@@H]1Nc1ccc(C(F)(F)F)cn1)c1cc(F)cc(F)c1-n1nccn1 [Example 99, 3,5-Difluoro-2-(2H-1,2,3-triazol-2-yl)-N-[(1S,2S)-2-{[5-(trifluoromethyl)pyridin-2-yl]amino}cyclopentyl]benzamide] | > 10 | 153 |
| O=C(N[C@H]1CCC[C@@H]1Nc1ccc(C(F)(F)F)cn1)c1ncccc1-n1nccn1 [Example 100, 3-(2H-1,2,3-Triazol-2-yl)-N-[(1S,2S)-2-{[5-(trifluoromethyl)pyridin-2-yl]amino}cyclopentyl]pyridine-2-carboxamide] | > 10 | 128 |
| O=C(N[C@H]1CCC[C@@H]1Nc1ccc(C(F)(F)F)cn1)c1ncccc1-n1cccn1 [Example 101, 3-(1H-Pyrazol-1-yl)-N-[(1S,2S)-2-{[5-(trifluoromethyl)pyridin-2-yl]amino}cyclopentyl]pyridine-2-carboxamide] | > 10 | 310 |
| O=C(N[C@H]1CCC[C@@H]1Nc1ccc(C(F)(F)F)cn1)c1c(F)cccc1-n1nccn1 [Example 102, 2-Fluoro-6-(2H-1,2,3-triazol-2-yl)-N-[(1S,2S)-2-{[5-(trifluoromethyl)pyridin-2-yl]amino}cyclopentyl]benzamide] | > 10 | 46 |
| CC1(Nc2ncc(C(F)(F)F)cc2F)CCCC1NC(=O)c1ncccc1-n1nccn1 (stereo not drawn) [Example 103, N-(2-{[3-Fluoro-5-(trifluoromethyl)pyridin-2-yl]amino}-2-methylcyclopentyl)-3-(2H-1,2,3-triazol-2-yl)pyridine-2-carboxamide] | 7.9 | 8 |
